In publication PMC9179928 (Journal of medicinal chemistry, 2021):

Tests used:
[1] = test system: EV-D68 US/KY/14-18953; assay: CPE assay, EV-D68 US/KY/14-18953 in RD cells; format: cell-based, enterovirus D68; conditions: vs 7a
[2] = test system: EV-D68 2C-D323G mutant; format: binding; conditions: 7d at 100 μM
[3] = test system: EV-D68 2C-D183V mutant; format: binding; conditions: 7d at 100 μM
[4] = test system: EV-A71 2C protein; format: binding; conditions: 7d at 10, 30, 100 and 300 μM
[5] = test system: EV-D68 2C-D183V/D323G double mutant; format: binding; conditions: 7d at 100 μM
[6] = test system: EV-D68 and EV-A71 strains; assay: organism not typed; format: cell-based; conditions: for EC50: RD, read-out: EC50 values against all EV-D68 and EV-A71 strains tested; for selectivity index over all EV-D68 and EV-A71 strains tested: strains of Table 2, RD cells
[7] = target: CVB3 2C protein (Coxsackievirus B3, UniProt P03313); format: binding; conditions: 7d at 10, 30, 100 and 300 μM
[8] = test system: EV-D68 US/MO/14-18947; assay: Plaque assay, EV-D68 US/MO/14-18947 in RD cells; format: cell-based, enterovirus D68; conditions: at 3 μM, positive control
[9] = test system: EV-D68 US/MO/14-18947; assay: Immunofluorescence assay; format: cell-based, enterovirus D68; conditions: at 50 μM, SH-SY5Y cells, positive control

SMILES | improvement in antiviral efficacy compared to the original hit 7a against EV-D68 virus [1] | EC50 [6] [nM] | also measured
CC(C)n1ncc2c(C(=O)NCCN3CCCC3)cc(C3CC3)nc21 [7b, 6-cyclopropyl-1-(propan-2-yl)-N-[2-(pyrrolidin-1-yl)ethyl]-1H-pyrazolo[3,4-b]pyridine-4-carboxamide] | more than 100 fold |  | 
CC(C)n1ncc2c(C(=O)NCCN(C)C)cc(C3CC3)nc21 [7d, 6-cyclopropyl-N-[2-(dimethylamino)ethyl]-1-(propan-2-yl)-1H-pyrazolo[3,4-b]pyridine-4-carboxamide] | more than 100 fold | 40 to 100 | ΔTm, 2C-D323G mutant [2]: 3.92 °C; ΔTm, 2C-D183V mutant [3]: 0.01 °C; binding to EV-A71 2C protein [4]: dose-dependent binding; ΔTm, 2C-D183V/D323G double mutant [5]: 0.61 °C; binding to CVB3 2C protein [7]: dose-dependent binding
CC(CN(C)C)NC(=O)c1cc(C2CC2)nc2c1cnn2C(C)C (stereo not drawn) [7f, 6-cyclopropyl-N-[1-(dimethylamino)propan-2-yl]-1-(propan-2-yl)-1H-pyrazolo[3,4-b]pyridine-4-carboxamide] | more than 100 fold |  | 
CC(C)n1ncc2c(C(=O)NC3CCN(C)C3)cc(C3CC3)nc21 (stereo not drawn) [7g, 6-cyclopropyl-N-(1-methylpyrrolidin-3-yl)-1-(propan-2-yl)-1H-pyrazolo[3,4-b]pyridine-4-carboxamide] | more than 100 fold |  | 
CNCCNC(=O)c1cc(C2CC2)nc2c1cnn2C(C)C [7h, 6-cyclopropyl-N-[2-(methylamino)ethyl]-1-(propan-2-yl)-1H-pyrazolo[3,4-b]pyridine-4-carboxamide] | more than 100 fold | 60 to 300 | selectivity index over all EV-D68 and EV-A71 strains tested [6]: over 700
CC(C)c1cc(C(=O)NCCN(C)C)c2cnn(C(C)C)c2n1 [10a, N-[2-(dimethylamino)ethyl]-1,6-bis(propan-2-yl)-1H-pyrazolo[3,4-b]pyridine-4-carboxamide] |  | 60 to 300 | selectivity index over all EV-D68 and EV-A71 strains tested [6]: over 700
CCC[C@H](NC(=O)[C@@H]1[C@H]2CCC[C@H]2CN1C(=O)[C@@H](NC(=O)[C@@H](NC(=O)c1cnccn1)C1CCCCC1)C(C)(C)C)C(=O)C(=O)NC1CC1 [Telaprevir] |  |  | inhibition of plaque formation [8]: complete inhibition of plaque formation
Cc1cc(C(=O)NCCN(C)C)c2c(C)nn(C(C)(C)C)c2n1 [compound 19, 1-tert-butyl-N-[2-(dimethylamino)ethyl]-3,6-dimethyl-1H-pyrazolo[3,4-b]pyridine-4-carboxamide] |  | 400 to 7400 | 
Cc1cc(CCCOc2c(C)cc(-c3noc(C(F)(F)F)n3)cc2C)on1 [pleconaril] |  |  | viral replication (VP1 fluorescence signal) [9]: completely abolished viral replication
